Assay results taken from PMC11889516 (Microbial Biotechnology, 2025).

T1: CYP116B234 (Rhodococcus globerulus, UniProt A0ABU4C0V8)
T1 construct: gene R3Q16_26300; full-length, N-terminal polyhistidine tag (GenBank MCE4265947.1)
T1 sequence (A0ABU4C0V8 1-767): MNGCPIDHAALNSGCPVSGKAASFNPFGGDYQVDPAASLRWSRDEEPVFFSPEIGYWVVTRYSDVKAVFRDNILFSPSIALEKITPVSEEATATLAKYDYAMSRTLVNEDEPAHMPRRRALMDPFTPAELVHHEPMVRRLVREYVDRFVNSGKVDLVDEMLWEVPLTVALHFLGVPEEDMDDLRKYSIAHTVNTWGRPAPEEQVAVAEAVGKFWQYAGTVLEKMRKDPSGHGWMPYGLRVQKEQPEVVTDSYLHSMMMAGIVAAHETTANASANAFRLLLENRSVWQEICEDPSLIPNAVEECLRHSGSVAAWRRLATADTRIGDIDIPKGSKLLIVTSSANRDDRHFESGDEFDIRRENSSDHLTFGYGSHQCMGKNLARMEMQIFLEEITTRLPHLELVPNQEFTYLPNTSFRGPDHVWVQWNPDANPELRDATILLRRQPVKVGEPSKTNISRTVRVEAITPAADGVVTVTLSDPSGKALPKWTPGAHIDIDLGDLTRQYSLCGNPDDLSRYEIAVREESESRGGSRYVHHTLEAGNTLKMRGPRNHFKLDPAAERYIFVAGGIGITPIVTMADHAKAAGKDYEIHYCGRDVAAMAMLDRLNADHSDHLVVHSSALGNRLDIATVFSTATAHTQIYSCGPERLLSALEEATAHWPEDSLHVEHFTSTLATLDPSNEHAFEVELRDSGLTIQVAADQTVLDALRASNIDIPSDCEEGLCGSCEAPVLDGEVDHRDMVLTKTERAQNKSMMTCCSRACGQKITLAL

B1: CYP116B234 (Rhodococcus globerulus) (protein)
chain: MNGCPIDHAALNSGCPVSGKAASFNPFGGDYQVDPAASLRWSRDEEPVFFSPEIGYWVVTRYSDVKAVFRDNILFSPSIALEKITPVSEEATATLAKYDYAMSRTLVNEDEPAHMPRRRALMDPFTPAELVHHEPMVRRLVREYVDRFVNSGKVDLVDEMLWEVPLTVALHFLGVPEEDMDDLRKYSIAHTVNTWGRPAPEEQVAVAEAVGKFWQYAGTVLEKMRKDPSGHGWMPYGLRVQKEQPEVVTDSYLHSMMMAGIVAAHETTANASANAFRLLLENRSVWQEICEDPSLIPNAVEECLRHSGSVAAWRRLATADTRIGDIDIPKGSKLLIVTSSANRDDRHFESGDEFDIRRENSSDHLTFGYGSHQCMGKNLARMEMQIFLEEITTRLPHLELVPNQEFTYLPNTSFRGPDHVWVQWNPDANPELRDATILLRRQPVKVGEPSKTNISRTVRVEAITPAADGVVTVTLSDPSGKALPKWTPGAHIDIDLGDLTRQYSLCGNPDDLSRYEIAVREESESRGGSRYVHHTLEAGNTLKMRGPRNHFKLDPAAERYIFVAGGIGITPIVTMADHAKAAGKDYEIHYCGRDVAAMAMLDRLNADHSDHLVVHSSALGNRLDIATVFSTATAHTQIYSCGPERLLSALEEATAHWPEDSLHVEHFTSTLATLDPSNEHAFEVELRDSGLTIQVAADQTVLDALRASNIDIPSDCEEGLCGSCEAPVLDGEVDHRDMVLTKTERAQNKSMMTCCSRACGQKITLAL
notes: full-length, N-terminal polyhistidine tag (GenBank MCE4265947.1)

Tests used:
CYP116B234 = target: T1, CYP116B234; experiment: UV-visible difference spectroscopy titration (heme spin-state shift); also NADPH consumption and turnover with purified enzyme; assay type: binding
purified protein [1] = substrate: NC(=O)C1=CN([C@@H]2O[C@H](COP(=O)(O)OP(=O)(O)OC[C@H]3O[C@@H](n4cnc5c(N)ncnc54)[C@H](O)[C@@H]3O)[C@@H](O)[C@H]2O)C=CC1; experiment: purified protein; details: FMN, [2Fe-2S], heme reductase domain; varied: cofactor
purified protein [2] = substrate: NC(=O)C1=CN([C@@H]2O[C@H](COP(=O)(O)OP(=O)(O)OC[C@H]3O[C@@H](n4cnc5c(N)ncnc54)[C@H](OP(=O)(O)O)[C@@H]3O)[C@@H](O)[C@H]2O)C=CC1; experiment: purified protein; assay type: biochemical, Rhodococcus globerulus; details: FMN, [2Fe-2S], heme reductase domain; varied: cofactor

Row | Molecule | Kd (CYP116B234) [nM] | Km (purified protein [1]) [µM] | Km (purified protein [2]) [µM]
1 | O=C(O)Cc1ccccc1O [2-HPA, 2‐hydroxyphenylacetic acid] | 700 ± 100 |  | 
2 | O=C(O)CCc1ccccc1O [HPPA, 3‐(2‐hydroxyphenyl)propionic acid] | 1900 ± 100 |  | 
3 | B1 |  | 240 ± 20 | 0.5 ± 0.4
